Source: publication PMC8286599 (Gut Pathogens, 2021)
Read-outs that look alike come from different tables or passages of the source.

What was measured:
[1] = test system: MDR-EAEC strains; assay: MIC and MBC by broth microdilution with resazurin; type: cell-based, enteroaggregative Escherichia coli; details: infant diarrhoea isolate
Source text: (§1) The characterised MDR field strains of EAEC (E1; E2; E3), S. Enteritidis (S1; S2; S3), and S. Typhimurium (ST1; ST2; ST3) maintained in the laboratory repository of Meat Safety Laboratory of ICAR-National Research Centre on Meat, Hyderabad re-validated using PCR assays were used to evaluate the in vitro antibacterial efficacy of phytochemicals. E. coli ATCC 25922 was used as the quality control strain.
(§2) The antimicrobial efficacy of identified phytochemicals against multi-drug resistant EAEC and NTS strains was determined by estimating the minimum inhibitory concentration (MIC) and minimum bactericidal concentrations (MBC).
(§3) Subsequent to the incubation period, resazurin dye (0.015 %) was added to all the wells to determine the dye reduction (pink) and thereby the bacterial inhibition.

[2] = test system: MDR-S. Enteritidis strains; assay: MIC and MBC by broth microdilution with resazurin; type: cell-based, Salmonella Enteritidis; details: poultry droppings isolate
Source text: as §1, §2, §3

[3] = test system: MDR-S. Typhimurium strains; assay: MIC and MBC by broth microdilution with resazurin; type: cell-based, Salmonella Typhimurium; details: poultry droppings isolate
Source text: as §1, §2, §3

[4] = Haemolytic assay; type: cell-based; details: read-out: Haemolysis; for hemolysis at 0.5 X MIC: 0.50X MIC
Description: The haemolytic assay of the individual phytochemical was performed by measuring the release of haemoglobin from sheep and human ‘O’ erythrocytes at 540 nm. The percentage of haemolysis was calculated as (Asample – APBS)/ (ATriton−X – APBS) ×100, in which Asample is the absorbance of phytochemical treatment, APBS is the absorbance of untreated control with PBS, and ATriton−X is the absorbance of lysed cells treated with Triton X-100 measured at 540 nm.

[5] = test system: MDR-EAEC strains; assay: Stability assay, pH (MIC)
Source text: (§4) To explore the utility of phytochemicals as therapeutic molecules and their stability, individual phytochemicals were exposed to cationic salts, and different pH levels followed by analysing their MIC and MBC values against test strains as described earlier.
(§5) Subsequent to exposure to varied conditions, the antimicrobial activity of the phytochemicals was estimated by determining their MIC and MBC values against all the selected MDR strains of EAEC, S. Enteritidis, and S. Typhimurium as described earlier.

[6] = test system: MDR-S. Enteritidis strains; assay: Stability assay, pH (MIC)
Source text: as §4, §5

[7] = test system: MDR-S. Typhimurium strains; assay: Stability assay, pH (MIC)
Source text: as §4, §5

[8] = test system: MDR-EAEC strains; assay: Stability assay, cationic salts (MIC)
Source text: as §4, §5

[9] = test system: MDR-S. Enteritidis strains; assay: Stability assay, cationic salts (MIC)
Source text: as §4, §5

[10] = test system: MDR-S. Typhimurium strains; assay: Stability assay, cationic salts (MIC)
Source text: as §4, §5

[11] = human 'O' erythrocytes, Human RBCs

SMILES: O=C/C=C/c1ccccc1 [Cinnamaldehyde, cinnamaldehyde]
- MBC ([1]; EAEC (E1)): 0.50 µl/ml
- MIC ([1]; EAEC (E1)): 0.50 µl/ml
- MBC ([1]; EAEC (E2)): 1.0 µl/ml
- MIC ([1]; EAEC (E2)): 0.50 µl/ml
- MBC ([1]; EAEC (E3)): 0.50 µl/ml
- MIC ([1]; EAEC (E3)): 0.25 µl/ml
- MBC ([2]; S. Enteritidis (S1)): 0.50 µl/ml
- MIC ([2]; S. Enteritidis (S1)): 0.12 µl/ml
- MBC ([2]; S. Enteritidis (S2)): 0.50 µl/ml
- MIC ([2]; S. Enteritidis (S2)): 0.12 µl/ml
- MBC ([2]; S. Enteritidis (S3)): 0.50 µl/ml
- MIC ([2]; S. Enteritidis (S3)): 0.12 µl/ml
- MBC ([3]; S. Typhimurium (ST1)): 0.50 µl/ml
- MIC ([3]; S. Typhimurium (ST1)): 0.25 µl/ml
- MBC ([3]; S. Typhimurium (ST2)): 0.50 µl/ml
- MIC ([3]; S. Typhimurium (ST2)): 0.25 µl/ml
- MBC ([3]; S. Typhimurium (ST3)): 1.0 µl/ml
- MIC ([3]; S. Typhimurium (ST3)): 0.12 µl/ml
- hemolysis at 0.25 X MIC [4, 11]: 0.554%
- hemolysis at 0.5 X MIC [4, 11]: 0.696%
- hemolysis at 1 X MIC [4, 11]: 2.03%
- hemolysis at 2 X MIC [4, 11]: 5%
- hemolysis at 4 X MIC [4, 11]: 12.8%
- hemolysis at 8 X MIC [4, 11]: 19.1%
- hemolysis at 0.25 X MIC ([4]; sheep erythrocytes, Sheep RBCs): 0.109%
- hemolysis at 0.5 X MIC ([4]; sheep erythrocytes, Sheep RBCs): 0.274%
- hemolysis at 1 X MIC ([4]; sheep erythrocytes, Sheep RBCs): 3.61%
- hemolysis at 2 X MIC ([4]; sheep erythrocytes, Sheep RBCs): 11.7%
- hemolysis at 4 X MIC ([4]; sheep erythrocytes, Sheep RBCs): 12.5%
- hemolysis at 8 X MIC ([4]; sheep erythrocytes, Sheep RBCs): 22%
- MIC at given pH ([5]; pH 4, strain E1): 0.5 µl/ml
- MIC at given pH ([5]; pH 4, strain E2): 0.5 µl/ml
- MIC at given pH ([5]; pH 4, strain E3): 0.5 µl/ml
- MIC at given pH ([5]; pH 6, strain E1): 0.5 µl/ml
- MIC at given pH ([5]; pH 6, strain E2): 0.5 µl/ml
- MIC at given pH ([5]; pH 6, strain E3): 0.5 µl/ml
- MIC at given pH ([5]; pH 8, strain E1): 0.5 µl/ml
- MIC at given pH ([5]; pH 8, strain E2): 0.5 µl/ml
- MIC at given pH ([5]; pH 8, strain E3): 0.5 µl/ml
- MIC at given pH ([6]; pH 4, strain S1): 0.5 µl/ml
- MIC at given pH ([6]; pH 4, strain S2): 0.5 µl/ml
- MIC at given pH ([6]; pH 4, strain S3): 0.5 µl/ml
- MIC at given pH ([6]; pH 6, strain S1): 0.5 µl/ml
- MIC at given pH ([6]; pH 6, strain S2): 0.5 µl/ml
- MIC at given pH ([6]; pH 6, strain S3): 0.5 µl/ml
- MIC at given pH ([6]; pH 8, strain S1): 0.5 µl/ml
- MIC at given pH ([6]; pH 8, strain S2): 0.5 µl/ml
- MIC at given pH ([6]; pH 8, strain S3): 1.0 µl/ml
- MIC at given pH ([7]; pH 4, strain ST1): 0.5 µl/ml
- MIC at given pH ([7]; pH 4, strain ST2): 1.0 µl/ml
- MIC at given pH ([7]; pH 4, strain ST3): 1.0 µl/ml
- MIC at given pH ([7]; pH 6, strain ST1): 0.5 µl/ml
- MIC at given pH ([7]; pH 6, strain ST2): 1.0 µl/ml
- MIC at given pH ([7]; pH 6, strain ST3): 1.0 µl/ml
- MIC at given pH ([7]; pH 8, strain ST1): 0.5 µl/ml
- MIC at given pH ([7]; pH 8, strain ST2): 1.0 µl/ml
- MIC at given pH ([7]; pH 8, strain ST3): 1.0 µl/ml
- MIC with cationic salt ([8]; 2 mM MgCl2, strain E1): 0.5 µl/ml
- MIC with cationic salt ([8]; 2 mM MgCl2, strain E2): 0.5 µl/ml
- MIC with cationic salt ([8]; 2 mM MgCl2, strain E3): 0.5 µl/ml
- Change of MIC values with cationic salts ([8]; 150 mM NaCl and 2 mM MgCl2, MDR-EAEC strains): remained almost similar
- MIC with cationic salt ([8]; 150 mM NaCl, strain E1): 0.5 µl/ml
- MIC with cationic salt ([8]; 150 mM NaCl, strain E2): 0.5 µl/ml
- MIC with cationic salt ([8]; 150 mM NaCl, strain E3): 0.5 µl/ml
- MIC with cationic salt ([9]; 2 mM MgCl2, strain S1): 0.5 µl/ml
- MIC with cationic salt ([9]; 2 mM MgCl2, strain S2): 0.5 µl/ml
- MIC with cationic salt ([9]; 2 mM MgCl2, strain S3): 0.5 µl/ml
- MIC with cationic salt ([9]; 150 mM NaCl, strain S1): 0.5 µl/ml
- MIC with cationic salt ([9]; 150 mM NaCl, strain S2): 0.5 µl/ml
- MIC with cationic salt ([9]; 150 mM NaCl, strain S3): 0.5 µl/ml
- MIC with cationic salt ([10]; 2 mM MgCl2, strain ST1): 0.5 µl/ml
- MIC with cationic salt ([10]; 2 mM MgCl2, strain ST2): 0.5 µl/ml
- MIC with cationic salt ([10]; 2 mM MgCl2, strain ST3): 1.0 µl/ml
- MIC with cationic salt ([10]; 150 mM NaCl, strain ST1): 0.5 µl/ml
- MIC with cationic salt ([10]; 150 mM NaCl, strain ST2): 0.5 µl/ml
- MIC with cationic salt ([10]; 150 mM NaCl, strain ST3): 1.0 µl/ml
